{"source": "patent US20250281679A1", "about": "“BIOMIMETIC COATING FOR ENDOVASCULAR STENT” (INSERM (Institut National de la Santé et de la Recherche …, priority 2021, published 2025)", "key": {"[1]": {"system": "New Zealand White rabbits", "experiment": "Coated flow-diverter stents (CFD) in the rabbit aneurysm model, no aspirin nor clopidogrel after implantation", "type": "in vivo", "settings": "7 days, n=3, no aspirin nor clopidogrel after the implantation; preliminary", "description": "The same materials and protocol as in Example 3 were used, except that: • Only 3 animals were used for each condition, and. • No aspirin nor clopidogrel was given to animals after the implantation."}, "[2]": {"system": "Human aortic endothelial cells", "experiment": "Human aortic endothelial cells grown 48 h on bare or peptide-coated nitinol disks; F-actin and CD31 fluorescence image analysis", "type": "cell-based", "experimental": "Nitinol disks are left untouched (bare metal) or coated with a domain 1, domain 2 or domain 1 and 2 CD31 analog peptide. The tested peptide is grafted to the nitinol disk following a polydopamine, DBCO-PEG4-amine and azide CD31 derivative peptide using a sequential dip-coating layering procedure. After this step, all the disks are incubated with Human aortic endothelial cells for 48h. Disks are then rinsed and the cells are fixed in a formalin solution before staining. The staining is fulfilled using phalloidin coupled to AlexaFluor®488 dye (green fluorescence for Actin), DAPI is used for DNA staining and a domain 1 CD31 antibody coupled to APC is used for external Domain 1 staining. The cell adhesion and Actin/CD31 expression was evaluated by image analysis of the surface after staining.\nIn particular, as per FIG. 2 the bare or coated nitinol disks were placed at the bottom of culture wells. Primary Human Aortic Endothelial Cells (HAEC) were allowed to grow on the disks for a period of 48 h. The disks were thereafter rinsed with phosphate buffered saline, fixed in formalin, and processed for fluorescence microscopy. Disk-adherent cells were immersed in a solution comprising Hoechst 33342 (1 μg/ml, to stain the nuclei), phalloidin coupled to AlexaFluor®488 dye (0.5 μM, to stain F-actin fibers) and a monoclonal antibody directed against CD31 domain 1, coupled to allophycocyanin (to detect the presence and localization of intact CD31 at the cell surface) for 1 hour at 37° C., washed and mounted face down on glass bottom imaging chambers for imaging with an inverted fluorescence microscope.\nSurface type is indicated on the Y axis, data are expressed as average±SD (N=6/surface type). Each dot corresponds to a specific surface modification. The F-actin expression relates the cellular stress of the cell in presence of the exogenous material.\nIn FIG. 4 the surface type is indicated on the Y axis. Each dot corresponds to a specific surface modification. Data are expressed as “Integrated Density” average±SD (N=6/surface type). CD31 expression relates the capacity of endothelial cells to adopt a physiologic phenotype while growing on a given substrate. An important variability is observed in terms of CD31 expression by HAEC according to the surface modification of the nitinol disks.\nThe effect of different peptides, belonging to the different groups, were tested in batches following the same protocol as in FIG. 6. Different peptides from each group were tested in batches and the effect of individual peptides was repeatedly assessed in separate experiments. Data from all experiments were obtained by computer-assisted analysis of images of the disk side covered with endothelial cells, captured in the blue, green and red channel of an inverted fluorescence microscope. The functional score of the peptides belonging to the different groups was calculated by multiplying the number of cells (as detected by the number of blue, Dapi+ nuclei) for the integrated density of CD31 expression (red signal provided by the binding of a mouse anti-human CD31 monoclonal antibody, clone 9G11, conjugated allophycocyanin) and their product being divided for the integrated density of the F-actin polymerization (Phalloidin coupled to a green fluorochrome).\nThe same protocol as in Example 1 was followed, using peptides according to the invention (SP547, SP548 SP745, SP1374, SP1072, SP1070, SP1071, SP1379 and SP1383) as defined above and the prior art peptide P8RI of sequence KWPALFVR (SEQ ID NO: 52).\nThe “CD31/Actin” score, resulting from the integrated density of CD31 immunostaining signal divided by the signal of phalloidin, which binds to the polymerized F-actin of the cytoskeleton, has been used to identify the physiological/non-stressed character of the arterial endothelial cells growing onto the surface of experimental disks placed at the bottom of culture wells. […]"}, "[3]": {"system": "New Zealand White rabbits", "experiment": "Coated flow-diverter stents (CFD) implanted in aneurysm-carrying artery and abdominal aorta of the rabbit aneurysm model, with aspirin and clopidogrel; SEM and histopathology", "type": "in vivo", "description": "Flow-diverter stents (CFD) are braided meshes made of nitinol, from Sinomed. They are coated by one of the following coatings: • 1. SP1072 peptide according to the invention, or • 2. Hydrophilic polymer eG NTMA (obtained from the electrografting of N-[Tris(hydroxymethyl)Methyl] Acrylamide).\nA total of 8 healthy New Zealand White rabbits (including 2 spare animals), male and female, weighing about 3 kg, were included in this study. A total of 3 observation time points of 7 days, 30 days and 60 days postoperatively were set. The experiment was divided into two steps: 1) aneurysm animal modeling; 2) implantation of a dense mesh stent in the aneurysm-carrying artery and abdominal aorta for each animal. The stent implantation in the aneurysm-carrying artery was to be used to examine the safety and effectiveness of the stent in treating aneurysms, and the stent implantation in the abdominal aorta, covering a pair of lumbar arteries, was to be used to examine the safety of the tested stent.\nThe test group was implanted with a dense mesh stent system in the aneurysm location (common carotid artery) and in the abdominal aorta of the animal model, and the control group was implanted with a dense mesh stent system in the aneurysm-carrying artery, where the abdominal aorta was implanted with the device to evaluate the effect of the stent on the penetrating and branch vessels.\nIn addition to heparin sodium injection 150 U/kg by IV during implantation, antiplatelet therapy (aspirin and clopidogrel) was given to the animals at 5 mg/kg each by feeding once a day for 3 days before surgery and at 5 mg/kg each by feeding postoperative to endpoint.\nThe collected tissues of the stented segments of the carrier arteries were preserved in 10% neutral formalin for more than 48 hours of immersion fixation, dehydrated in alcohol gradient and treated with xylene transparency for histopathological analysis.\nThe resin-embedded stented segment of the aneurysm-carrying artery was sectioned transversely through the neck of the aneurysm, with one slice cut at the aneurysm and two slices cut at the non-aneurysm, and stained with HE; the non-stented segment was paraffin-embedded, with one slice cut at the proximal and one at the distal end; HE staining was performed for histopathological evaluation.\nOne animal each at 7D (7 days), 30D (30 days) and 60D (60 days) was randomly selected, and the aneurysm-carrying artery and abdominal aorta implanted at the above time points were collected for SEM to observe the endothelialization of the flow-directed stent at the aneurysm neck site and the opening site of the branch vessels at the abdominal aorta site."}, "[4]": {"settings": "day 7, aneurysm-carrying artery, HE staining, FIG. 29"}, "[5]": {"settings": "day 60, aneurysm-carrying artery, FIG. 30"}}, "note": "Square brackets hold non-standard residues; d marks the D form. Primed or numbered codes have the meaning given here. Ends that are not written are not given here. Lys(N3) = [N-]=[N+]=NCCCC[C@H](N)C(=O)O; PEG4′ = not defined here", "data": [{"substance": "YKSTVIVNNKEKTTAE-PEG4-K(N3)-CONH2 (YKSTVIVNNKEKTTAE[PEG4′][Lys(N3)]-NH2) [SP1072]", "values": [{"measurement": "survival and thrombus after implantation", "setting": "[1]", "result": "still alive with no thrombus"}, {"measurement": "CD31/Actin score", "setting": "[2]; Example 2, FIG. 25, compared to bare metal disks or disks coated with PDA alone", "result": "significantly higher"}, {"measurement": "CD31 expression, Integrated Density", "setting": "[2]; HAEC 48 h on coated nitinol disks, anti-CD31 domain 1 antibody, compared to other modified disks and bare controls, FIGS. 2, 4, 5", "result": "evident positive effect in terms of CD31 expression"}, {"measurement": "ratio between CD31 and F-actin expression", "setting": "[2]; compared to bare metal and disks coated with PDA only, FIG. 6", "result": "higher CD31/actin ratio"}, {"measurement": "endothelialization of the device at sites other than the aneurysm entry (conclusion)", "setting": "[3]; Example 3 conclusion", "result": "fast and complete without apparent inflammation nor neointima"}, {"measurement": "endothelialization on the inner surface of the flow-diverter stents (conclusion)", "setting": "[3]; Example 3 conclusion", "result": "promotes early endothelialization on the inner surface of the flow-diverter stents"}, {"measurement": "neo arterial wall at the entry of the aneurysm sac and thrombus inside the sac (conclusion)", "setting": "[3]; Example 3 conclusion", "result": "promotes the growth of an organized, blood-impermeable neo arterial wall at the entry of the aneurysm sac"}, {"measurement": "entry of fresh blood into the aneurysmal sac / thrombus (histopathology)", "setting": "[3]; [4]", "result": "fresh blood is no longer allowed to enter and remain trapped there"}, {"measurement": "organization of the thrombus in the aneurysmal sac (histopathology)", "setting": "[3]; [4]", "result": "organized"}, {"measurement": "inflammation/thrombosis of the arterial wall in contact with the stent struts (histopathology)", "setting": "[3]; [5]", "result": "absence of inflammation/thrombosis of the arterial wall that is already in contact with the stent struts"}, {"measurement": "organization of the thrombus in the aneurysmal sac (histopathology)", "setting": "[3]; [5]", "result": "very well organized"}]}]}
